Assay results published in patent publication US20040067998A1, “Antifungal and/or antiparasitic pharmaceutical composition and novel indole derivatives as active principle of such a composition” (priority 2003, published 2004).
In brackets after ≈: the same amount, converted by molar mass. Several values for one entry are separate records, joined by “and”; a condition that tells them apart may be missing. Equal entries are not always repeated. Where two headings read alike, the source gives them in different places.

What was measured:
Format in all cases: cell-based
[1] = system: Aspergillus fumigatus (strain n°AF 980003); test: Antifungal activity on a clinical strain of Aspergillus fumigatus (Alamar Blue microplate test); conditions: for CMI or CI80 Aspergillus fumigatus (AF980003) / MIC: strain AF980003; for activity against Aspergillus fumigatus (in words): summary of Tables 27 to 40; for MIC: read-out: CMI or CI80 Aspergillus fumigatus (AF980003)
[2] = system: Candida albicans (strain n° CA980001); test: Antifungal activity on a clinical strain of Candida albicans (MTT colorimetric microplate test); conditions: for CMI or CI80 Candida albicans (CA980001) / MIC: strain CA980001; for activity of inhibition of Candida albicans (in words): summary of Tables 27 to 40; for MIC: read-out: CMI or CI80 Candida albicans (CA980001)
[3] = system: promastigote stage of Leishmania mexicana; test: Antiparasitic activity on the promastigote form of Leishmania (MTT); conditions: for IC50: read-out: CI50 Leishmania mexicana Promastigotes
[4] = promastigotes, 36 h at 26° C., MTT
[5] = Aspergillus fumigatus, Alamar Blue
[6] = Candida albicans, 24 h at 37° C., MTT
[7] = Leishmania mexicana, promastigotes, 36 h at 26° C., MTT

CCC(c1cn(Cc2ccc(Cl)cc2)c2ccccc12)n1ccnc1.O=[N+]([O-])O (stereo not drawn) [64n]
CMI or CI80 Aspergillus fumigatus (AF980003) [1]: 57 ± 5 μM and 23.53 μg/mL
activity against Aspergillus fumigatus (in words) [1]: strong activity
CMI or CI80 Candida albicans (CA980001) [2]: 36 ± 10 μM and 15 ± 4 μg/mL
CI50 Leishmania mexicana Promastigotes ([3]; promastigotes): 2.97 ± 0.02 µg/mL
IC50 ([3]; promastigotes): 7.2 ± 0.07 µM

CCN1CCc2cccc(C(c3ccc(F)cc3)n3ccnc3)c21 (stereo not drawn) [compound 50]
CMI or CI80 Aspergillus fumigatus (AF980003) ([1]; Alamar Blue): 5.4 ± 0.2 μM and 1.7 ± 0.1 μg/ml
activity against Aspergillus fumigatus (in words) [1]: most active
CMI or CI80 Candida albicans (CA980001) ([2]; 24 h at 37° C., MTT): 0.67 ± 0.01 μM and 0.22 ± 0.01 μg/ml
activity of inhibition of Candida albicans (in words) [2]: most active
activity against Leishmania mexicana (in words) [3]: most active
CI50 Leishmania mexicana Promastigotes [3, 4]: 0.24 ± 0.017 µg/mL (≈ 0.747 µM)
IC50 [3, 4]: 0.74 ± 0.017 µM

Fc1ccc(Cn2c(Cn3ccnc3)cc3ccccc32)cc1 [Cpsé 3n, 1-(4-Fluorobenzyl)-2-(1H-imidazol-1-ylmethyl)-1H-indole]
MIC [1, 5]: 21 ± 0.3 µM (≈ 6.41 µg/mL)
CMI or CI80 Aspergillus fumigatus (AF980003) ([1]; Alamar Blue): 8 ± 1.2 µg/mL
activity against Aspergillus fumigatus (in words) [1]: most active
MIC [2, 6]: 81 ± 14 µM (≈ 24.7 µg/mL)
CMI or CI80 Candida albicans (CA980001) ([2]; 24 h at 37° C., MTT, listed as 9): 32.46 ± 14 µg/mL
activity against Leishmania mexicana (in words) [3]: strong activity
IC50 [3, 7]: 3.4 µg/mL and 8.5 µM

Fc1ccc(Cn2cc(Cn3cncn3)c3cc(Br)ccc32)cc1 [compound 25]
MIC ([1]; Alamar Blue): >100 µM
MIC ([2]; 24 h at 37° C., MTT): >100 µM
CI50 Leishmania mexicana Promastigotes [3]: 19.38 µg/mL (≈ 50.3 µM)
IC50 [3]: 50.3 µM

CCn1ccc2cc(C(c3ccc(Cl)cc3)n3ccnc3)ccc21 (stereo not drawn) [Cpsé 53, 5-[(4-Chlorophenyl)(1H-imidazol-1-yl)methyl]-1-ethyl-1H-indole]
MIC [1, 5]: > 100 µM
MIC [2, 6]: > 100 µM
IC50 [3, 7]: > 100 µM

Clc1ccc(Cn2cc(Cn3ccnc3)c3cc(Cl)ccc32)cc1 [compound 14]
CMI or CI80 Aspergillus fumigatus (AF980003) ([1]; Alamar Blue): 71 ± 3 μM and 25 ± 1 μg/ml
CMI or CI80 Candida albicans (CA980001) ([2]; 24 h at 37° C., MTT): 30 µg/mL
MIC ([2]; 24 h at 37° C., MTT): 85 µM (≈ 30.3 µg/mL)
CI50 Leishmania mexicana Promastigotes [3]: non linear

CCN1CCc2cccc(C(c3cccc(Cl)c3)n3ccnc3)c21 (racemic) [compound 48]
CMI or CI80 Aspergillus fumigatus (AF980003) ([1]; Alamar Blue): 58 ± 4 μM and 26 ± 2 μg/ml
activity against Aspergillus fumigatus (in words) [1]: strong activity
CMI or CI80 Candida albicans (CA980001) ([2]; 24 h at 37° C., MTT): 0.06 ± 0.01 μM and 0.02 ± 0.01 μg/ml
activity of inhibition of Candida albicans (in words) [2]: most active
activity against Leishmania mexicana (in words) [3]: strong activity
CI50 Leishmania mexicana Promastigotes [3, 4]: 1 ± 0.3 µg/mL (≈ 2.96 µM)
IC50 [3, 4]: 3 ± 1 µM

Clc1ccc(C(Cn2ccc3ccccc32)n2ccnc2)cc1 (stereo not drawn) [compound 85]
CMI or CI80 Aspergillus fumigatus (AF980003) [1]: 88 ± 5 μM and 28 ± 2 μg/mL
MIC [2]: >100 µM
IC50 [3]: > 100 µM

CCCCC(c1cn(Cc2ccc(Cl)cc2)c2ccccc12)n1ccnc1.O=C(O)/C=C/C(=O)O (stereo not drawn) [66f]
MIC [1]: >100 µM
CMI or CI80 Candida albicans (CA980001) [2]: 7 ± 0.1 μM and 3.46 μg/mL
activity of inhibition of Candida albicans (in words) [2]: significant activity
CI50 Leishmania mexicana Promastigotes ([3]; promastigotes): 2.6 ± 0.03 µg/mL
IC50 ([3]; promastigotes): 5.4 ± 0.06 µM

Cc1c(C(C)n2ccnc2)c2ccccc2n1Cc1ccc(F)cc1 (stereo not drawn) [compound 72]
CMI or CI80 Aspergillus fumigatus (AF980003) [1]: 69 ± 1 μM and 23 ± 1 μg/mL
CMI or CI80 Candida albicans (CA980001) [2]: 67 ± 3 μM and 22 ± 1 μg/mL
CI50 Leishmania mexicana Promastigotes [3]: 0.7 ± 0.3 µg/mL (≈ 2.1 µM)
IC50 [3]: 2 ± 1 µM

Fc1ccc(Cn2cc(Cn3ccnc3)c3cccnc32)cc1 [Cpsé 88, 1-(4-Fluorobenzyl)-3-(1H-Imidazol-1ylmethyl)-1H-7-azaindole]
MIC [1, 5]: > 100 µM
MIC [2, 6]: 0.7 ± 0.01 µM (≈ 0.214 µg/mL)
CMI or CI80 Candida albicans (CA980001) ([2]; 24 h at 37° C., MTT, listed as 51): 0.28 ± 0.01 µg/mL
activity of inhibition of Candida albicans (in words) [2]: most active
IC50 [3, 7]: 16.6 µM and 6.64 µg/mL

Fc1ccc(Cn2cc(Cn3ccnc3)c3ccccc32)c(F)c1 [compound 6]
CMI or CI80 Aspergillus fumigatus (AF980003) ([1]; Alamar Blue): 60 ± 2 μM and 19.4 ± 2 μg/ml
activity against Aspergillus fumigatus (in words) [1]: strong activity
CMI or CI80 Candida albicans (CA980001) ([2]; 24 h at 37° C., MTT): 48 ± 4 μM and 16 ± 2 μg/ml
CI50 Leishmania mexicana Promastigotes [3, 4]: 6 ± 0.5 µg/mL (≈ 18.6 µM)
IC50 [3, 4]: 18.5 ± 1.8 µM

Fc1cccc(Cn2cc(Cn3ccnc3)c3ccccc32)c1 [compound 5]
CMI or CI80 Aspergillus fumigatus (AF980003) ([1]; Alamar Blue): 46 ± 5 μM and 14 ± 1.5 μg/ml
activity against Aspergillus fumigatus (in words) [1]: strong activity
CMI or CI80 Candida albicans (CA980001) ([2]; 24 h at 37° C., MTT): 68 ± 1 μM and 20.76 ± 1 μg/ml
CI50 Leishmania mexicana Promastigotes [3, 4]: 9.2 ± 0.7 µg/mL (≈ 30.1 µM)
IC50 [3, 4]: 30.4 ± 2.5 µM

Fc1ccc(C(C(n2ccc3ccccc32)n2nnc3ccccc32)n2ccnc2)cc1 (mixture of isomers) [compound 83]
MIC [1]: >100 µM
CMI or CI80 Candida albicans (CA980001) [2]: 55 ± 5 μM and 23 ± 2 μg/mL
CI50 Leishmania mexicana Promastigotes [3]: 1.85 ± 0.03 µg/mL
IC50 [3]: 4.4 ± 0.07 µM

Clc1ccccc1Cn1cc(C2(Cn3ccnc3)CCCC2)c2ccccc21 [compound 62]
MIC [1]: >100 µM
MIC [2]: >100 µM
CI50 Leishmania mexicana Promastigotes [3]: 28.38 µg/mL (≈ 72.8 µM)
IC50 [3]: 72.8 µM

CCn1c(C(c2ccc(Cl)cc2Cl)n2ccnc2)c(C)c2cc(Br)ccc21 (stereo not drawn) [compound 34]
MIC [1]: >100 µM
CMI or CI80 Candida albicans (CA980001) [2]: 48 ± 0.5 μM and 22 ± 0.5 μg/mL
CI50 Leishmania mexicana Promastigotes [3]: 1.99 ± 0.04 µg/mL (≈ 4.3 µM)
activity against Leishmania mexicana (in words) [3]: strong activity
IC50 [3]: 4.28 ± 0.1 µM

CCn1c(C(c2cccc(Cl)c2)n2ccnc2)c(C)c2cc(Br)ccc21 (stereo not drawn) [compound 32]
CMI or CI80 Aspergillus fumigatus (AF980003) [1]: 66 ± 5 μM and 28 ± 2 μg/mL
CMI or CI80 Candida albicans (CA980001) [2]: 62 ± 1 μM and 27 ± 0.5 μg/mL
activity against Leishmania mexicana (in words) [3]: most active
IC50 [3]: < 0.1 µM

CCn1ccc2cccc(C(c3ccc(F)cc3)n3ccnc3)c21 (stereo not drawn) [compound 57]
CMI or CI80 Aspergillus fumigatus (AF980003) [1]: 20 ± 5 μM and 6 ± 2 μg/mL
activity against Aspergillus fumigatus (in words) [1]: most active
CMI or CI80 Candida albicans (CA980001) [2]: 0.67 ± 0.02 μM and 0.21 ± 0.01 μg/mL
activity of inhibition of Candida albicans (in words) [2]: most active
CI50 Leishmania mexicana Promastigotes ([3]; promastigotes): 0.80 ± 1.3 µg/mL (≈ 2.5 µM)
IC50 ([3]; promastigotes): 2.49 ± 1.3 µM

CCn1c(C(c2ccc(F)cc2)n2ccnc2)c(C)c2ccccc21.O=[N+]([O-])O (stereo not drawn) [31n]
CMI or CI80 Aspergillus fumigatus (AF980003) [1]: 16 ± 3 μM and 6 ± 1 μg/mL
activity against Aspergillus fumigatus (in words) [1]: most active
CMI or CI80 Candida albicans (CA980001) [2]: 7 ± 0.3 μM and 2.77 ± 0.3 μg/mL
activity of inhibition of Candida albicans (in words) [2]: significant activity
activity against Leishmania mexicana (in words) [3]: most active
IC50 ([3]; promastigotes): < 0.1 µM

Fc1ccc(Cn2ccc3cc(-c4nnn[nH]4)ccc32)cc1 [Cpsé 2, 1-(4-Fluorobenzyl)-5-(1H-tetrazol-5-yl)-1H-indole]
MIC [1, 5]: > 100 µM
MIC [2, 6]: 64 ± 1 µM (≈ 18.8 µg/mL)
CMI or CI80 Candida albicans (CA980001) ([2]; 24 h at 37° C., MTT, listed as 4): 19.54 ± 1 µg/mL
activity against Leishmania mexicana (in words) [3]: strong activity
IC50 [3, 7]: 3 µg/mL and 10 µM

CCn1cc(C(c2ccc(F)cc2)n2ccnc2)c2cc(Br)ccc21 (stereo not drawn) [Cpsé 46, 5-Bromo-1-ethyl-3-[(4-fluorophenyl)(1H-imidazol-1yl)methyl]-1H-indole]
MIC [1, 5]: > 100 µM
MIC [2, 6]: > 100 µM
IC50 [3, 7]: 65 µM and 21 µg/mL

CC(C)(C)c1ccc(Cn2cc(Cn3ccnc3)c3ccccc32)cc1.O=C(O)/C=C/C(=O)O [7f]
CMI or CI80 Aspergillus fumigatus (AF980003) ([1]; Alamar Blue): 70 ± 3 μM and 32.17 ± 3 μg/ml
MIC ([2]; 24 h at 37° C., MTT): >100 µM
CI50 Leishmania mexicana Promastigotes [3]: 3.9 ± 0.09 µg/mL
activity against Leishmania mexicana (in words) [3]: strong activity
IC50 [3]: 8.4 ± 0.5 µM

CC(c1cn(Cc2ccc(Cl)cc2Cl)c2ccccc12)n1ccnc1.O=C(O)/C=C/C(=O)O (stereo not drawn) [68f]
CMI or CI80 Aspergillus fumigatus (AF980003) [1]: 65 ± 3 μM and 31 ± 1 μg/mL
activity against Aspergillus fumigatus (in words) [1]: strong activity
CMI or CI80 Candida albicans (CA980001) [2]: 31 ± 7 μM and 15 ± 3 μg/mL
CI50 Leishmania mexicana Promastigotes ([3]; promastigotes): 2.7 ± 0.05 µg/mL
IC50 ([3]; promastigotes): 5.7 ± 0.13 µM
